Experimental data reported in patent US7514567B2 (priority 2003, dated 2009).

Target: α7 nAChR Subtype (Rattus norvegicus, UniProt Q05941)
Type: binding
Conditions: read-out: KD of radioligand from saturation curves

Sequence of α7 nAChR Subtype (Q05941 23-502 limits assumed): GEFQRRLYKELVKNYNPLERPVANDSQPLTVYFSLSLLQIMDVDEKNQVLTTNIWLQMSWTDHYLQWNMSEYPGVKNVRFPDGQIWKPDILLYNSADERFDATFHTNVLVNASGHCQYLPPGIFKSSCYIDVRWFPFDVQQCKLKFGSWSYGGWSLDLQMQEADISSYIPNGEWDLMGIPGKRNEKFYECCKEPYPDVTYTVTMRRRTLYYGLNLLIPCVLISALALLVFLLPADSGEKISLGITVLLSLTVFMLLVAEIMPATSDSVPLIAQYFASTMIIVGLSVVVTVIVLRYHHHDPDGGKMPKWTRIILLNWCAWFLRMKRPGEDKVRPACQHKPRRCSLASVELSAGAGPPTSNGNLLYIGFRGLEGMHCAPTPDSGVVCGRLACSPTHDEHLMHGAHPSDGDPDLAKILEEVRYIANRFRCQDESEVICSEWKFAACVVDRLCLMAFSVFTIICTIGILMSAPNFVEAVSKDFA

[^125I]-α-Bungarotoxin [[^125I]-α-BTX]
Kd: 1.67 nM
